These results are taken from US20120230918A1, “NON-INVASIVE IN VIVO OPTICAL IMAGING METHOD” (Hoffmann-La-Roche Inc., priority 2009, published 2012).

Usually Tmax stands for the time at which the peak concentration occurs. The half-life is the time needed for the level to fall by half in the phase considered.

The conditions of data set [1]: after i.v. injection; cited from earlier work.
A short description of data set [2]: in vivo. Conditions: female, BALB/c nude, mouse, eye region (fluorescence signal), iv, 20 μg/200 μl.
Description: Female BALB/c nude mice received inhalation anaesthesia, were placed in the imaging chamber (FIG. 3) and injected i.v. with a dose of 20 μg/200 μl. The fluorescence signal intensity measurements in the eye was started 10 sec before i.v. injection of ICG and images were recorded every second with an acquisition time of 500 ms over a period of 8 minutes. ICG was excited with light at a wavelength range from 671 to 705 nm and the emission was detected at 820 nm.
Female BALB/c nude received inhalation anesthesia, were placed into the imaging chamber and injected i.v. with ICG (20 μg/200 μl). The fluorescence signal intensity was measured starting 10 sec before injection of ICG. Images in the region of interest were recorded every second with an acquisition time of 500 ms over a period of 8 min. ICG was excited with light at a wavelength range from 671 to 705 nm and the emission was detected at 820 nm. The fluorescence intensity from these regions were then calculated and plotted as a function of time.
Female BALB/c nude mice received inhalation anesthesia, were placed in the imaging chamber (FIG. 3) and injected i.v. with a dose of 20 μg/200 μl.
The conditions of data set [3]: injected i.v. into mice; cited from earlier work.
Data set [4] in a line: Fluorescence signal intensity of ICG in eye, liver, kidney, brain and tumor region of a mouse with s.c. Calu3 tumor. The conditions noted are these: second experiment, ICG i.v., BALB/c nude mouse with s.c. Calu3 tumor.
Description: (§1) We first evaluated the technical feasibility of this new approach by using indocyanine green (ICG) a fluorescent dye. […] Female BALB/c nude mice received inhalation anaesthesia, were placed in the imaging chamber (FIG. 3) and injected i.v. with a dose of 20 μg/200 μl. The fluorescence signal intensity measurements in the eye was started 10 sec before i.v. injection of ICG and images were recorded every second with an acquisition time of 500 ms over a period of 8 minutes. ICG was excited with light at a wavelength range from 671 to 705 nm and the emission was detected at 820 nm. […] In a second experiment, a BALB/c nude mouse with a s.c. growing tumor (Calu3) was injected with ICG i.v. and signal intensity in eye, liver, kidney, brain and the tumor region was monitored.
(§2) The fluorescence signal intensity in Calu3 xenograft was measured as described before. ROI were identified for the eye, liver, kidney, brain and s.c. growing tumor using the anatomical pictures of the subjects. The fluorescence intensity from these regions were then calculated and plotted as a function of time.
(§3) In a second experiment, a BALB/c nude mouse with a s.c. growing tumor (Calu3) was injected with ICG i.v. and signal intensity in eye, liver, kidney, brain and the tumor region was monitored.
A short description of data set [5]: in vivo. Conditions: BALB/c nude, mouse, eye (fluorescence signal intensity in the eye region), iv, 20 μg/200 μl.
Description: as §1, §2, §3
Data set [6] deals with BMP-2 induced upregulation of Hepcidin mRNA in HepG2 cells. As to the kind of experiment: Block of BMP-2 induced upregulation of Hepcidin mRNA in HepG2 cells. It is filed as cell-based. Conditions: in vitro.

In the case of `NCCC(O)(P(=O)(O)O)P(=O)(O)O` [Pamidronate], the serum half life in data set [1] is 20 to 30 min.

For the molecule `CC1(C)C(/C=C/C=C/C=C/C=C2\N(CCCCS(=O)(=O)O)c3ccc4ccccc4c3C2(C)C)=[N+](CCCCS(=O)(=O)[O-])c2ccc3ccccc3c21` [ICG, Indocyanine green], in “in vivo [2]”, the Tmax was 2 min and the half-life is 6.6 min. Further, in data set [3], the organ of accumulation entry is listed as “accumulates in the liver” and the “time in which cleared from the circulation” value is 2 to 4 min. Further, in data set [4], the “accumulation in the liver, time of reaching a plateau” value turned out to be 3.8 min. Further, in “in vivo [5]”, the Tmax was 1.2 min and the half-life was determined as 5.4 min.

B1: non-labeled Hemojuvelin: non-labeled Hemojuvelin (protein, UniProt Q6ZVN8 36-400, looked up)
Hemojuvelin: QCKILRCNAEYVSSTLSLRGGGSSGALRGGGGGGRGGGVGSGGLCRALRSYALCTRRTARTCRGDLAFHSAVHGIEDLMIQHNCSRQGPTAPPPPRGPALPGAGSGLPAPDPCDYEGRFSRLHGRPPGFLHCASFGDPHVRSFHHHFHTCRVQGAWPLLDNDFLFVQATSSPMALGANATATRKLTIIFKNMQECIDQKVYQAEVDNLPVAFEDGSINGGDRPGGSSLSIQTANPGNHVEIQAAYIGTTIIIRQTAGQLSFSIKVAEDVAMAFSAEQDLQLCVGGCPPSQRLSRSERNRRGAITIDTARRLCKEGLPVEDAYFHSCVFDVLISGDPNFTVAAQAALEDARAFLPDLEKLHLFPSD
On to B1, for which the “ability to block BMP-2 induced upregulation of Hepcidin mRNA, non-labeled versus Cy5-labeled” value in data set [6] is “did not differ”.

B2: Cy5-labeled Hemojuvelin: Hemojuvelin labeled with Cy5 (conjugate, UniProt Q6ZVN8 36-400, looked up)
Hemojuvelin: B1 Hemojuvelin
modifications: Cy5 label
For the molecule B2, the “ability to block BMP-2 induced upregulation of Hepcidin mRNA, non-labeled versus Cy5-labeled” value in data set [6] is listed as “did not differ”.
